Assay results published in PubChem BioAssay (NCI).
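Values below derive from 48-hour exposures of cells grown in 96-well plates, with endpoints linearly interpolated between the two concentrations bracketing the appropriate inhibition level. Definition used: TGI = concentration required for complete inhibition of growth.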

Assays:
Assay in all cases: growth of human tumour cells (NCI), 48 h
786-0 renal = tested on: 786-0 renal
A498 renal = tested on: A498 renal
A549 NSCLC = tested on: A549 NSCLC
ACHN renal = tested on: ACHN renal
BT-549 breast = tested on: BT-549 breast
CAKI-1 renal = tested on: CAKI-1 renal
CCRF-CEM leukemia = tested on: CCRF-CEM leukemia
COLO 205 colon = tested on: COLO 205 colon
DU-145 prostate = tested on: DU-145 prostate
EKVX NSCLC = tested on: EKVX NSCLC
HCC-2998 colon = tested on: HCC-2998 colon
HCT-116 colon = tested on: HCT-116 colon
HCT-15 colon = tested on: HCT-15 colon
HL-60(TB) leukemia = tested on: HL-60(TB) leukemia
HOP-62 NSCLC = tested on: HOP-62 NSCLC
HOP-92 NSCLC = tested on: HOP-92 NSCLC
HS 578T breast = tested on: HS 578T breast
HT29 colon = tested on: HT29 colon
IGROV1 ovarian = tested on: IGROV1 ovarian
K-562 leukemia = tested on: K-562 leukemia
KM12 colon = tested on: KM12 colon
LOX IMVI melanoma = tested on: LOX IMVI melanoma
M14 melanoma = tested on: M14 melanoma
MALME-3M melanoma = tested on: MALME-3M melanoma
MCF7 breast = tested on: MCF7 breast
MDA-MB-231 breast = tested on: MDA-MB-231 breast
MDA-MB-435 = tested on: MDA-MB-435
MDA-N = tested on: MDA-N
MOLT-4 leukemia = tested on: MOLT-4 leukemia
NCI-H226 lung = tested on: NCI-H226 lung
NCI-H23 lung = tested on: NCI-H23 lung
NCI-H460 lung = tested on: NCI-H460 lung
NCI-H522 lung = tested on: NCI-H522 lung
NCI/ADR-RES ovarian = tested on: NCI/ADR-RES ovarian
OVCAR-3 ovarian = tested on: OVCAR-3 ovarian
OVCAR-4 ovarian = tested on: OVCAR-4 ovarian
OVCAR-5 ovarian = tested on: OVCAR-5 ovarian
OVCAR-8 ovarian = tested on: OVCAR-8 ovarian
PC-3 prostate = tested on: PC-3 prostate
RPMI-8226 leukemia = tested on: RPMI-8226 leukemia
RXF 393 renal = tested on: RXF 393 renal
SF-268 CNS = tested on: SF-268 CNS
SF-295 CNS = tested on: SF-295 CNS
SF-539 CNS = tested on: SF-539 CNS
SK-MEL-2 melanoma = tested on: SK-MEL-2 melanoma
SK-MEL-28 melanoma = tested on: SK-MEL-28 melanoma
SK-MEL-5 melanoma = tested on: SK-MEL-5 melanoma
SK-OV-3 ovarian = tested on: SK-OV-3 ovarian
SN12C renal = tested on: SN12C renal
SNB-19 CNS = tested on: SNB-19 CNS
SNB-75 CNS = tested on: SNB-75 CNS
SW-620 colon = tested on: SW-620 colon
T-47D breast = tested on: T-47D breast
TK-10 renal = tested on: TK-10 renal
U251 CNS = tested on: U251 CNS
UACC-257 melanoma = tested on: UACC-257 melanoma
UACC-62 melanoma = tested on: UACC-62 melanoma
UO-31 renal = tested on: UO-31 renal
SR leukemia = tested on: SR leukemia

Measured: TGI

Nc1nc(Cl)c(N)c(NCC2(CO)CC(Cc3ccccc3)C2)n1 (stereo not drawn)
> 56.7 µM: U251 CNS
> 78.5 µM: A498 renal
> 86.3 µM: UACC-257 melanoma
> 69.2 µM: MCF7 breast
17.3 µM: HL-60(TB) leukemia
> 94.3 µM: K-562 leukemia
60 µM: MDA-MB-435
18.5 µM: SK-MEL-5 melanoma
> 78.8 µM: MOLT-4 leukemia | RPMI-8226 leukemia
not listed: SR leukemia
> 100 µM: all other assays above

O=C(CCN1CCOCC1)Nc1ccc(F)cc1F
not listed: CCRF-CEM leukemia | HCC-2998 colon | RXF 393 renal | SNB-75 CNS
> 100 µM: all other assays above

COC(=O)/C=C/c1cnc2c(c1)oc(=O)n2CCc1ccccn1
69 µM: CCRF-CEM leukemia
89 µM: MDA-MB-435
9.78 µM: HL-60(TB) leukemia
not listed: CAKI-1 renal | DU-145 prostate | HOP-92 NSCLC | NCI-H522 lung | OVCAR-8 ovarian | RXF 393 renal
> 100 µM: all other assays above

O=C(c1ccco1)C1CC(c2ccc3ccccc3c2O)=NN1 (stereo not drawn)
not listed: EKVX NSCLC | HL-60(TB) leukemia | LOX IMVI melanoma | SNB-19 CNS
> 100 µM: all other assays above

CC1=NN(c2nc(N)nc(/C(C#N)=C/c3ccc([N+](=O)[O-])o3)n2)C(C)(C)C1
3.82 µM: IGROV1 ovarian
> 22.8 µM: RPMI-8226 leukemia
4.37 µM: HT29 colon
2.99 µM: 786-0 renal
3.21 µM: MCF7 breast | RXF 393 renal
27.2 µM: UACC-257 melanoma
9.24 µM: BT-549 breast
4.52 µM: TK-10 renal
25.7 µM: OVCAR-4 ovarian
29.8 µM: A549 NSCLC
> 52.3 µM: SK-OV-3 ovarian
2.75 µM: M14 melanoma
6.32 µM: HL-60(TB) leukemia
28.1 µM: KM12 colon
32.6 µM: A498 renal
29.7 µM: SNB-19 CNS
6.12 µM: MOLT-4 leukemia
3.07 µM: LOX IMVI melanoma
3.4 µM: HOP-92 NSCLC
31.8 µM: UO-31 renal
7.05 µM: T-47D breast
9.04 µM: EKVX NSCLC
16.7 µM: SK-MEL-2 melanoma
3.29 µM: MDA-MB-231 breast
11.3 µM: U251 CNS
3.02 µM: COLO 205 colon
2.94 µM: HCT-116 colon
6.38 µM: MDA-MB-435
31.3 µM: HOP-62 NSCLC
16.2 µM: SF-268 CNS
10.8 µM: NCI-H23 lung | NCI-H460 lung
10.1 µM: SNB-75 CNS
12 µM: SF-539 CNS
8.91 µM: OVCAR-8 ovarian
3.81 µM: CAKI-1 renal
19.1 µM: SK-MEL-28 melanoma
> 100 µM: CCRF-CEM leukemia | MDA-N
11.1 µM: OVCAR-3 ovarian
21.5 µM: PC-3 prostate
3.22 µM: OVCAR-5 ovarian
3.49 µM: ACHN renal
17 µM: DU-145 prostate | SK-MEL-5 melanoma
6.9 µM: NCI-H226 lung
1.13 µM: K-562 leukemia
39.4 µM: HCC-2998 colon
33.8 µM: SF-295 CNS
71.4 µM: HS 578T breast
4.23 µM: MALME-3M melanoma
> 49.9 µM: NCI/ADR-RES ovarian
3.71 µM: SW-620 colon
5.31 µM: UACC-62 melanoma

CSc1ccccc1P(c1ccccc1SC)c1ccccc1SC
not listed: COLO 205 colon | HCC-2998 colon | HL-60(TB) leukemia | HT29 colon | IGROV1 ovarian | NCI-H460 lung | NCI-H522 lung | OVCAR-3 ovarian | PC-3 prostate | RXF 393 renal | SNB-75 CNS | UACC-257 melanoma
> 100 µM: all other assays above

CC1CC(=O)Nc2cc(Cl)ccc2N1C(=O)C1CC1 (stereo not drawn)
not listed: NCI/ADR-RES ovarian | SNB-75 CNS | UACC-62 melanoma | SR leukemia
> 100 µM: all other assays above
